Experimental data: PubChem BioAssay (NCI)
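Cells were grown in 96-well plates and exposed to each compound for 48 hours at five concentrations; endpoints were interpolated linearly between bracketing concentrations, or set to the highest concentration if not reached. At the GI50, growth is halved. TGI denotes the concentration required for complete inhibition of growth.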

What was measured:
Assay in all cases: inhibition of tumour cell growth, NCI panel, 48 h
[1] = tested on: EKVX NSCLC
[2] = tested on: HOP-92 NSCLC
[3] = tested on: K-562 leukemia
[4] = tested on: NCI-H522 lung
[5] = tested on: OVCAR-3 ovarian
[6] = tested on: OVCAR-8 ovarian
[7] = tested on: SK-MEL-5 melanoma
[8] = tested on: SK-OV-3 ovarian
[9] = tested on: SNB-19 CNS
[10] = tested on: TK-10 renal

Row | SMILES | TGI [1] [µM] | TGI [2] [µM] | TGI [3] [µM] | TGI [4] [µM] | TGI [5] [µM] | TGI [6] [µM] | TGI [7] [µM] | TGI [8] [µM] | TGI [9] [µM] | TGI [10] [µM] | GI50 [1] [µM] | GI50 [2] [µM] | GI50 [3] [µM] | GI50 [4] [µM] | GI50 [5] [µM] | GI50 [6] [µM] | GI50 [7] [µM] | GI50 [8] [µM] | GI50 [9] [µM] | GI50 [10] [µM]
1 | CCC(C)(O)c1cn(-c2cccc(S(=O)(=O)O)c2)nn1 (centres undefined) | > 100 | > 100 | > 100 | > 100 | > 100 | > 100 | > 100 | > 100 | > 100 | > 100 | – | – | – | – | – | – | – | – | – | –
2 | C=C1C(=O)O[C@H]2[C@H]1CC/C(COC(=O)/C=C\C(=O)NCc1ccc(Cn3c(=O)sn(-c4ccc(C#N)cc4)c3=O)cc1)=C\CC[C@@]1(C)O[C@@H]21 | 1.57 | 1.45 | 50 | 1.65 | 0.953 | 2.7 | 1.55 | 10.5 | 2.27 | 1.61 | 0.797 | 0.622 | 0.707 | 0.714 | 0.306 | 0.802 | 0.842 | 4.02 | 0.969 | 0.888
3 | COc1cc([C@@H]2c3cc4c(cc3C(O[C@@H]3O[C@@H]5CO[C@@H](c6cccs6)OC5[C@H](O)[C@H]3O)C3COC(=O)[C@@H]32)OCO4)cc(OC)c1O (some centres undefined) | 14.4 | 1.25 | 19.3 | 0.396 | 1.19 | 1.09 | 0.573 | 0.81 | 17 | 0.799 | 0.677 | 0.0461 | 0.111 | 0.0369 | 0.248 | 0.0856 | 0.0567 | 0.102 | 0.0278 | 0.118
4 | NC(N)=NC(N)=Nc1cc2ccccc2c2ccccc12 | 29.1 | 11 | 21.9 | 21.5 | 26.6 | 20.6 | 22.8 | 24 | 21.6 | 20.5 | 12 | 1.31 | 4.34 | 5.66 | 12.3 | 5.15 | 10.4 | 11.4 | 7.69 | 6.08
5 | Cc1[nH]c(N=Nc2ccccc2)nc1N=Nc1ccccc1 | 29.9 | 20.3 | > 100 | > 34.5 | 16.1 | 53.1 | 7.83 | > 32.4 | > 87.7 | > 32.9 | 3.05 | 2.34 | 3.55 | 2.69 | 2.6 | 3.2 | 2.41 | 3.14 | 3.63 | 1.85
6 | Cc1ccc(NC(=O)C2C(=O)N(c3ccc(C)c(C)c3)C(=O)/C2=N/O)cc1C (centres undefined) | > 100 | > 100 | > 100 | > 100 | > 100 | > 100 | > 100 | > 100 | > 100 | > 100 | – | – | – | – | – | – | – | – | – | –
7 | CC(C)CSc1nc(Nc2ccccc2)c(C#N)c(-c2ccc(F)cc2)n1 | 16.5 | 2.63 | > 100 | 71.4 | 4.22 | 16.1 | 82.4 | 32.5 | 13.2 | 6.33 | 1.73 | 0.605 | 5.31 | 14.4 | 1.11 | 3.27 | 24.7 | 8.13 | 2.45 | 1.61
8 | COc1cc(Cn2c(-c3ccccc3)cc3c2-c2oncc2CC3)cc(OC)c1OC | > 100 | > 100 | > 100 | 5.99 | 1.65 | > 100 | 16.8 | > 100 | > 100 | > 100 | 1.39 | 12.7 | 0.364 | 0.294 | 0.372 | 5.38 | 0.882 | 1.53 | 1.93 | 7.7
9 | COc1ccc(C2CC(=O)c3c(OC)cc(OC)cc3O2)cc1 (centres undefined) | > 100 | > 100 | > 100 | > 100 | > 100 | > 100 | > 100 | > 100 | > 100 | > 100 | > 100 | 18.4 | > 100 | > 100 | > 100 | > 100 | > 100 | > 100 | > 100 | > 100
10 | O=c1[nH]c(=O)n(C2CC(O)C(CS)O2)cc1F (centres undefined) | > 100 | > 96.7 | > 100 | > 100 | > 100 | > 63.1 | > 100 | > 100 | > 100 | > 100 | – | – | – | – | – | – | – | – | – | –
11 | N#CCCN(CCC#N)c1ccc(C(=O)NN)cc1 | > 100 | > 100 | > 100 | > 100 | > 100 | > 100 | > 100 | > 100 | > 100 | > 100 | – | – | – | – | – | – | – | – | – | –
12 | COc1ccc(-c2cc3c(nn2)-c2ccccc2C3=O)cc1 | > 10 | > 100 | > 100 | > 100 | > 100 | > 100 | > 100 | > 100 | > 100 | > 100 | – | > 100 | > 100 | > 100 | > 100 | > 100 | > 100 | > 100 | > 100 | > 100
13 | Cc1cccc(C(C)(C)C)c1NC(=O)CCc1n[nH]c(=S)o1 | > 100 | > 100 | > 100 | > 100 | > 100 | > 100 | > 100 | > 100 | > 100 | > 100 | – | – | – | – | – | – | – | – | – | –
14 | NCCCNCCSSCCCCS(=O)O | > 100 | > 100 | > 100 | 32.3 | 44.8 | > 100 | 32.7 | > 100 | > 100 | > 100 | – | – | – | – | – | – | – | – | – | –
15 | Cn1cc(-c2csc(-c3cccc(F)c3)n2)c2cccnc21 | 37.6 | 18.6 | 87.1 | 36 | 33.9 | 64.3 | 30.4 | 62.2 | 54.4 | 38.1 | 12.5 | 1.04 | 23.3 | 15.9 | 19 | 26.5 | 15.7 | 24.9 | 20.1 | 17.9
16 | N#C/C(C(=S)Nc1ccccc1)=C1/NN=C2c3ccccc3C(=O)NN21 | > 100 | 88.7 | > 100 | 63.3 | 52.7 | > 100 | 41.1 | 59.8 | > 100 | 50.4 | 35.3 | 29.2 | 22.1 | 11.8 | 21.2 | 32 | 17 | 19.6 | 30.4 | 21.2
17 | O=C1C2=C(CC3C(C2)C3(Br)Br)C(=O)C2=C1CC1C(C2)C1(Br)Br (centres undefined) | > 100 | > 100 | > 100 | > 100 | > 100 | > 100 | > 100 | > 100 | > 100 | > 100 | – | – | – | – | – | – | – | – | – | –
18 | Cc1cccc(N2C(=O)C(Cl)=C(Cl)C2=O)c1 | > 100 | > 78.6 | > 83.2 | 22.7 | > 80.5 | > 100 | > 100 | > 100 | > 100 | > 100 | – | – | – | – | – | – | – | – | – | –
19 | Cc1cc(NS(=O)(=O)c2ccc(NC(=O)c3cccc4c(=O)c5ccccc5[nH]c34)cc2)no1 | > 100 | > 100 | > 100 | 56.6 | 95.5 | 67.4 | > 100 | 72.7 | > 100 | > 100 | – | – | – | – | – | – | – | – | – | –
20 | O=C(CCCSc1nc(-c2ccc(Cl)cc2)cc(-c2ccc(Cl)cc2)n1)NO | 12.7 | 11.7 | > 100 | 8.11 | 2.14 | 28.6 | 4.06 | 11.8 | 13.2 | 17.2 | 1.14 | 2.51 | 0.727 | 1.27 | 0.413 | 0.558 | 1.86 | 2.02 | 1.92 | 0.853
21 | COc1cccc(N=Cc2c3ccccc3c(=O)n3c2oc2ccccc23)c1 | > 100 | 30.7 | 6.05 | > 100 | 45.3 | 39 | 37.1 | > 100 | > 100 | 7.69 | 17.3 | 1.68 | 2.09 | 24 | 4.44 | 7.82 | 17.5 | 73.1 | 52.2 | 2.95
22 | CC12CCCC(CC(=O)c3[nH]c4ccccc4c31)C2 (centres undefined) | > 100 | 36.7 | > 45.2 | 5.29 | 2.61 | 30.7 | 15 | > 76.1 | > 100 | > 90.4 | 1.55 | 2.56 | 0.345 | 0.451 | 0.384 | 2.01 | 0.669 | 3.53 | 1.48 | 14.6
